Test results: the kinase profiling compilation of Christmann-Franck et al. (2016)

How the values were obtained:
Assay in all cases: radiometric filter-binding kinase assay, Kinase HotSpot
Settings in all cases: compound 0.5 µM; ATP 10 µM
[1] = biological target: EGFR (human) (UniProt P00533)
[2] = biological target: PAK1 (human) (UniProt Q13153)
[3] = biological target: MAPK12 (human) (UniProt P53778)
[4] = biological target: PRKCE (human) (UniProt Q02156)
[5] = biological target: PDGFRB (human) (UniProt P09619)
[6] = biological target: FES (human) (UniProt P07332)
[7] = biological target: MARK2 (human) (UniProt Q7KZI7)
[8] = biological target: ABL1 (human) (UniProt P00519)
[9] = biological target: MYLK (human) (UniProt Q15746)
[10] = biological target: GRK6 (human) (UniProt P43250)
[11] = biological target: ACVR1 (human) (UniProt Q04771)
[12] = biological target: CHUK (human) (UniProt O15111)
[13] = biological target: FGFR1 (human) (UniProt P11362)
[14] = biological target: WEE1 (human) (UniProt P30291)
[15] = biological target: CLK2 (human) (UniProt P49760)
[16] = biological target: NEK7 (human) (UniProt Q8TDX7)
[17] = biological target: CDC42BPB (human) (UniProt Q9Y5S2)
[18] = biological target: STK4 (human) (UniProt Q13043)
[19] = biological target: CDK5 CDK5R1 p35 (human) (UniProt Q00535+Q15078)
[20] = biological target: NUAK2 (human) (UniProt Q9H093)
[21] = biological target: MAP3K10 (human) (UniProt Q02779)
[22] = biological target: PLK2 (human) (UniProt Q9NYY3)
[23] = biological target: PRKD2 (human) (UniProt Q9BZL6)
[24] = biological target: CSNK1E (human) (UniProt P49674)
[25] = biological target: AURKA (human) (UniProt O14965)
[26] = biological target: RAF1 (human) (UniProt P04049)
[27] = biological target: ERBB2 (human) (UniProt P04626)
[28] = biological target: CSNK2A2 (human) (UniProt P19784)
[29] = biological target: DCLK2 (human) (UniProt Q8N568)
[30] = biological target: PLK1 (human) (UniProt P53350)
[31] = biological target: MAPK1 (human) (UniProt P28482)
[32] = biological target: PBK (human) (UniProt Q96KB5)
[33] = biological target: EPHB4 (human) (UniProt P54760)

Chain of ACVR1 (human) (Q04771 whole entry, looked up): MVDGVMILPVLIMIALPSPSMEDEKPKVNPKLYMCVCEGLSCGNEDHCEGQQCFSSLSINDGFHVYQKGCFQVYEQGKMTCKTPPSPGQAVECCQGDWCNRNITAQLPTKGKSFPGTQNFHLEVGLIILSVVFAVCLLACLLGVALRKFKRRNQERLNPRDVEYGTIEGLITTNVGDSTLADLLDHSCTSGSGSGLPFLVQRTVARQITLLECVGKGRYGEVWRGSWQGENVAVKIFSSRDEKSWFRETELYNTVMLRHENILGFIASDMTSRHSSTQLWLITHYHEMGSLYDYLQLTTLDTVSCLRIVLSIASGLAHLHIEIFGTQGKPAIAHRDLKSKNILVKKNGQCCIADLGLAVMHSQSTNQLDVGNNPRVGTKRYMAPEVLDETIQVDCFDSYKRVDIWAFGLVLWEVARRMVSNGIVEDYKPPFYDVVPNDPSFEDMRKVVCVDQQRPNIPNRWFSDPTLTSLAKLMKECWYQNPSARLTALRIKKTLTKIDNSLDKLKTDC
Chain of MYLK (human) (Q15746 whole entry, looked up): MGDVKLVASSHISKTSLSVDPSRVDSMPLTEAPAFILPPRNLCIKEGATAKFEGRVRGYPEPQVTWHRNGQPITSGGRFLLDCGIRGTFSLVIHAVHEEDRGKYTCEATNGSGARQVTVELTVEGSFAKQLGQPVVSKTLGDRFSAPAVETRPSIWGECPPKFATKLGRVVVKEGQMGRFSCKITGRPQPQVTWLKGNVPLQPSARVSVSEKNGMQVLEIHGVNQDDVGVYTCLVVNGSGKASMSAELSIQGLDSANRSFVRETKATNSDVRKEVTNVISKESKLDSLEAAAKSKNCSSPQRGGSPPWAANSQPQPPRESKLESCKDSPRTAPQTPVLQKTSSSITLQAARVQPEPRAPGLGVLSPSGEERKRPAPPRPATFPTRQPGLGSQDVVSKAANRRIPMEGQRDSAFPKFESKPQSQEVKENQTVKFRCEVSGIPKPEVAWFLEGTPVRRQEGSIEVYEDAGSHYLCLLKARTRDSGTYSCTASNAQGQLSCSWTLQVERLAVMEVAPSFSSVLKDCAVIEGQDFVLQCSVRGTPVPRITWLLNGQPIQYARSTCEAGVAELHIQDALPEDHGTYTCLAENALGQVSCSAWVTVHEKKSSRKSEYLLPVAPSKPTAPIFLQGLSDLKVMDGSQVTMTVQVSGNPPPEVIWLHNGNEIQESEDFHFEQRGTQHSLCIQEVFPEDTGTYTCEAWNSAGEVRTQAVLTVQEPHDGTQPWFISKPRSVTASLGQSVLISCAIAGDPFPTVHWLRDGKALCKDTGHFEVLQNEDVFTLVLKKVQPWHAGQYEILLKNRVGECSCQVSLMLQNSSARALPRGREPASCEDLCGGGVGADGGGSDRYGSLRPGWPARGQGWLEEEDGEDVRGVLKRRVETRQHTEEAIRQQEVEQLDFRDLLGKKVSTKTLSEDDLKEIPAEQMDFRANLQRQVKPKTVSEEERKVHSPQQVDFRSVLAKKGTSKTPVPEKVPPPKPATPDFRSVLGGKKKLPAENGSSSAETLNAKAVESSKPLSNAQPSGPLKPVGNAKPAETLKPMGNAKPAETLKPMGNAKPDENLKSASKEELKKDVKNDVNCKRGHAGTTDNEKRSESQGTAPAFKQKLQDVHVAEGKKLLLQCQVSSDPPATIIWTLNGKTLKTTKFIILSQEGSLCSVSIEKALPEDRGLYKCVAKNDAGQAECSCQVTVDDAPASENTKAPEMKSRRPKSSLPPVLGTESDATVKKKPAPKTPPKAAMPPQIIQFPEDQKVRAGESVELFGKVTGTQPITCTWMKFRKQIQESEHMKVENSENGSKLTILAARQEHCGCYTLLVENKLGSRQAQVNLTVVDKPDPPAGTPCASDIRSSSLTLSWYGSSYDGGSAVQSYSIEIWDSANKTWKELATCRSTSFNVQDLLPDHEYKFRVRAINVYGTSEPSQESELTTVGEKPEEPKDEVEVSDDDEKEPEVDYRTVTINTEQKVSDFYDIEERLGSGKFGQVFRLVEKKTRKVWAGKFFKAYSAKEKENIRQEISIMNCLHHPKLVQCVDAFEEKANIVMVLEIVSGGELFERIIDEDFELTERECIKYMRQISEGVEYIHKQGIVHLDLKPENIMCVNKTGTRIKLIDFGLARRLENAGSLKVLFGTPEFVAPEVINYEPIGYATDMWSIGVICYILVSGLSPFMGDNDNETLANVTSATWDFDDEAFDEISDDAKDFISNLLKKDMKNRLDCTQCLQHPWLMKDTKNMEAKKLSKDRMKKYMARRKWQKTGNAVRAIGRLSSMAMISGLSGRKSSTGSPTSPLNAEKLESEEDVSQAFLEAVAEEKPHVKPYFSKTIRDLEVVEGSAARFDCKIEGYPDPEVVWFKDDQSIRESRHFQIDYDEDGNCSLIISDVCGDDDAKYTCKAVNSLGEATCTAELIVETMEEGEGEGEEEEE
Chain of PBK (human) (Q96KB5 whole entry, looked up): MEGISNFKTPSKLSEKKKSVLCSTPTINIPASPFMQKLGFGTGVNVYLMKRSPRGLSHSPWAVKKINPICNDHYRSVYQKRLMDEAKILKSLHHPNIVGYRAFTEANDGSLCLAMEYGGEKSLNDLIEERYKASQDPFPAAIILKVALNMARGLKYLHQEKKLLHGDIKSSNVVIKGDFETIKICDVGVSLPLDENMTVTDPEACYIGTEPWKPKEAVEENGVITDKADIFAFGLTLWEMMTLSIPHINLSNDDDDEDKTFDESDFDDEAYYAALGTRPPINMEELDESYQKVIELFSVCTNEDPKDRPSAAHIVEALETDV
Chain of CLK2 (human) (P49760 whole entry, looked up): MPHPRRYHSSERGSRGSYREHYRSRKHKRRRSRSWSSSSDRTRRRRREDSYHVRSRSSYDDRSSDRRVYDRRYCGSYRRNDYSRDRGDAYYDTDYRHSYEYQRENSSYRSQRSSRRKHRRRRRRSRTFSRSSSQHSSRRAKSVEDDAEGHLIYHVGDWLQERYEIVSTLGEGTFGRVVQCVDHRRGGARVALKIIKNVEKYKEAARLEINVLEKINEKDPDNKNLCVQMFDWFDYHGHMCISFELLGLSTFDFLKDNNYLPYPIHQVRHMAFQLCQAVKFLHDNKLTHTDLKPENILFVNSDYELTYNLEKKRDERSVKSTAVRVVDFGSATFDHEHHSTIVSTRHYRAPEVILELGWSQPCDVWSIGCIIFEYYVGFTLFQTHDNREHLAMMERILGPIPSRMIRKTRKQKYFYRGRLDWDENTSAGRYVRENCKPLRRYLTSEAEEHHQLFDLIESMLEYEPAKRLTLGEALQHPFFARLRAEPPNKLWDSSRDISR
Chain of PDGFRB (human) (P09619 whole entry, looked up): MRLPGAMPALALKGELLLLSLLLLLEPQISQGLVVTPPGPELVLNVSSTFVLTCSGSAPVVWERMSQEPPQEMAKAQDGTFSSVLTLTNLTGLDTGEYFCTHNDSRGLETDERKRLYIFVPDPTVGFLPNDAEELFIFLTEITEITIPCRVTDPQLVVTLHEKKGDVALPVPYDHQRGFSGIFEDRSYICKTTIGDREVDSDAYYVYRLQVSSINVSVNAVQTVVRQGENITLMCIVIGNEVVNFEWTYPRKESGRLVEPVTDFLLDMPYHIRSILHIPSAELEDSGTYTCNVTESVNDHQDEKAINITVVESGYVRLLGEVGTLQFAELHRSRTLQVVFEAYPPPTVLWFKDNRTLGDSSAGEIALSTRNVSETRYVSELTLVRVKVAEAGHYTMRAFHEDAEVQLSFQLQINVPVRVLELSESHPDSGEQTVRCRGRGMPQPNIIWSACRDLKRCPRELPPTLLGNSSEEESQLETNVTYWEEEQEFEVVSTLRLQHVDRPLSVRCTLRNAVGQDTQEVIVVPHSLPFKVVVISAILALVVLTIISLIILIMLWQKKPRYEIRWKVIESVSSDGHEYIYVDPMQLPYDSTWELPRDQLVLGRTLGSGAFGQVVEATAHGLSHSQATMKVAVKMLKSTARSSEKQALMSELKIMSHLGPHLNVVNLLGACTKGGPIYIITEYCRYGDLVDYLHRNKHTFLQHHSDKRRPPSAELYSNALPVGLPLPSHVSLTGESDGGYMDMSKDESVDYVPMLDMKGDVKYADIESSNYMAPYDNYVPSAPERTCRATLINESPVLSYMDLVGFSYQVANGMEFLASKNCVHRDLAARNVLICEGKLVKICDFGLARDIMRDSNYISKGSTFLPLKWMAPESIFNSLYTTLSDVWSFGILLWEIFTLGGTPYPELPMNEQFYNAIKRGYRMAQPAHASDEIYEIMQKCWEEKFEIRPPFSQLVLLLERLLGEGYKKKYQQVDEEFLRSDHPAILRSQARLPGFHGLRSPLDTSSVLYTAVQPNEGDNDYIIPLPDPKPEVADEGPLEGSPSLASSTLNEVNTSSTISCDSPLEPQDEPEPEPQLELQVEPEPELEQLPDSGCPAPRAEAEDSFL
Chain of PLK2 (human) (Q9NYY3 whole entry, looked up): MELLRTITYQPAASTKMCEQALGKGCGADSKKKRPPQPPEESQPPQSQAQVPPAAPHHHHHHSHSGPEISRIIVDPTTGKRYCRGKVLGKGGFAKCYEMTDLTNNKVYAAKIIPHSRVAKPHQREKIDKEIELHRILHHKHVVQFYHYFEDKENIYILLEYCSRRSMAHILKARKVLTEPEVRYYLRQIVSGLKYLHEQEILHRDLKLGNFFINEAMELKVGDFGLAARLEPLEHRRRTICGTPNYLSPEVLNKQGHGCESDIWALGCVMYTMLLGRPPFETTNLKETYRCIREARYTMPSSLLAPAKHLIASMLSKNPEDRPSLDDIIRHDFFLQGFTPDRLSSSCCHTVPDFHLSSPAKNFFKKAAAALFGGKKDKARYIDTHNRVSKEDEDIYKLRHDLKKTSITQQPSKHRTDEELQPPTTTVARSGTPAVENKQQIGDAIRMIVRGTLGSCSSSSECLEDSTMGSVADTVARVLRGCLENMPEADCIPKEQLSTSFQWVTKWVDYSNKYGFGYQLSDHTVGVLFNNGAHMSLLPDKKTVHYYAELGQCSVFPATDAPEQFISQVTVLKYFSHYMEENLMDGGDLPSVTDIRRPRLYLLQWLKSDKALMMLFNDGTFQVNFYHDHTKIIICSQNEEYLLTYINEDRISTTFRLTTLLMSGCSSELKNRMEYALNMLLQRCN

Row | Structure (SMILES) | residual activity [1] [%] | residual activity [2] [%] | residual activity [4] [%] | residual activity [5] [%] | residual activity [6] [%] | residual activity [7] [%] | residual activity [8] [%] | residual activity [9] [%] | residual activity [10] [%] | residual activity [11] [%] | residual activity [12] [%] | residual activity [13] [%] | residual activity [14] [%] | residual activity [15] [%] | residual activity [16] [%] | residual activity [17] [%] | residual activity [18] [%] | residual activity [20] [%] | residual activity [21] [%] | residual activity [22] [%] | also measured
1 | O=C1Nc2ccccc2/C1=C\c1c(Cl)[nH]c2ccccc12 | 97.5 | 92.8 | 95.1 | 102 | 96.6 | 94.7 | 95.2 | 90.4 | 107 | 100 | 94.2 | 92 | 107 | 92.7 | 97.6 | 102 | 91 | 106 | 94.7 | 98.2 | residual activity [3]: 93%; residual activity [19]: 86.7%; residual activity [23]: 90.2%; residual activity [24]: 87.8%; residual activity [25]: 108%; residual activity [26]: 89.9%; residual activity [27]: 97.3%; residual activity [28]: 94.3%; residual activity [29]: 93.5%; residual activity [30]: 95.4%; residual activity [31]: 96.4%; residual activity [32]: 102%; residual activity [33]: 90.2%
2 | O=C(NC(NC(=S)Nc1ccc(F)c([N+](=O)[O-])c1)C(Cl)(Cl)Cl)C(c1ccccc1)c1ccccc1 (centres undefined) | 108 | 86 | 109 | 105 | 104 | 92.3 | 101 | 99.6 | 97.5 | 98.8 | 91.5 | 97.7 | 91.8 | 93.5 | 102 | 97.2 | 96.2 | 108 | 98.9 | 92.9 | residual activity [23]: 107%; residual activity [24]: 111%; residual activity [25]: 80.8%; residual activity [26]: 95.3%; residual activity [27]: 94.8%; residual activity [28]: 97%; residual activity [29]: 108%; residual activity [30]: 111%; residual activity [31]: 97.6%; residual activity [32]: 116%; residual activity [33]: 101%
